Biological target: T1, voltage-gated sodium channel Nav1.7 (Homo sapiens, UniProt Q15858)
T1 construct: host or cells: HEK293
Assay: Nav1.7 inhibition, membrane potential fluorescence dye assay with veratridine stimulation in Human Nav1.7-HEK293 cells
Type: cell-based
Settings: 30 μM veratridine as stimulant
Description: Human Nav1.7-HEK293 cells are HEK293 (human embryonic kidney 293) cells stabilized by transforming the human Nav1.7 gene. One day before experiment, the Human Nav1.7-HEK293 cells were dispensed onto a 96-well plate with 8×10^4 cells/well and cultured in a 5% CO2 incubator at 37° C. for 24 hours. DMEM/F12 containing 10% fetal bovine serum (FBS) was used as a culture medium and geneticin (Gibco®, Thermo Fisher Scientific) was added to stabilize the cells.
24 hours later, after washing the 96-well plate once with a 20 mM HEPES Hanks' balanced salt solution (HBSS) buffer (hereinafter, referred to as a reaction buffer, Invitrogen®, Thermo Fisher Scientific), a membrane potential fluorescence dye (FLIPR®, Molecular Devices) was added to the human Nav1.7-HEK293 cells. […] After reaction for 10 minutes, the change in membrane potential depending on treatment with 30 μM veratridine as a stimulant was measured for each well for 55 seconds using a fluorescence plate reader (FlexStation3, Molecular Device, USA).
The inhibition rate was calculated in the same manner also for lidocaine (Sigma) which is used as a local anesthetic and itch-relieving agent.

T1 sequence (Q15858 whole entry): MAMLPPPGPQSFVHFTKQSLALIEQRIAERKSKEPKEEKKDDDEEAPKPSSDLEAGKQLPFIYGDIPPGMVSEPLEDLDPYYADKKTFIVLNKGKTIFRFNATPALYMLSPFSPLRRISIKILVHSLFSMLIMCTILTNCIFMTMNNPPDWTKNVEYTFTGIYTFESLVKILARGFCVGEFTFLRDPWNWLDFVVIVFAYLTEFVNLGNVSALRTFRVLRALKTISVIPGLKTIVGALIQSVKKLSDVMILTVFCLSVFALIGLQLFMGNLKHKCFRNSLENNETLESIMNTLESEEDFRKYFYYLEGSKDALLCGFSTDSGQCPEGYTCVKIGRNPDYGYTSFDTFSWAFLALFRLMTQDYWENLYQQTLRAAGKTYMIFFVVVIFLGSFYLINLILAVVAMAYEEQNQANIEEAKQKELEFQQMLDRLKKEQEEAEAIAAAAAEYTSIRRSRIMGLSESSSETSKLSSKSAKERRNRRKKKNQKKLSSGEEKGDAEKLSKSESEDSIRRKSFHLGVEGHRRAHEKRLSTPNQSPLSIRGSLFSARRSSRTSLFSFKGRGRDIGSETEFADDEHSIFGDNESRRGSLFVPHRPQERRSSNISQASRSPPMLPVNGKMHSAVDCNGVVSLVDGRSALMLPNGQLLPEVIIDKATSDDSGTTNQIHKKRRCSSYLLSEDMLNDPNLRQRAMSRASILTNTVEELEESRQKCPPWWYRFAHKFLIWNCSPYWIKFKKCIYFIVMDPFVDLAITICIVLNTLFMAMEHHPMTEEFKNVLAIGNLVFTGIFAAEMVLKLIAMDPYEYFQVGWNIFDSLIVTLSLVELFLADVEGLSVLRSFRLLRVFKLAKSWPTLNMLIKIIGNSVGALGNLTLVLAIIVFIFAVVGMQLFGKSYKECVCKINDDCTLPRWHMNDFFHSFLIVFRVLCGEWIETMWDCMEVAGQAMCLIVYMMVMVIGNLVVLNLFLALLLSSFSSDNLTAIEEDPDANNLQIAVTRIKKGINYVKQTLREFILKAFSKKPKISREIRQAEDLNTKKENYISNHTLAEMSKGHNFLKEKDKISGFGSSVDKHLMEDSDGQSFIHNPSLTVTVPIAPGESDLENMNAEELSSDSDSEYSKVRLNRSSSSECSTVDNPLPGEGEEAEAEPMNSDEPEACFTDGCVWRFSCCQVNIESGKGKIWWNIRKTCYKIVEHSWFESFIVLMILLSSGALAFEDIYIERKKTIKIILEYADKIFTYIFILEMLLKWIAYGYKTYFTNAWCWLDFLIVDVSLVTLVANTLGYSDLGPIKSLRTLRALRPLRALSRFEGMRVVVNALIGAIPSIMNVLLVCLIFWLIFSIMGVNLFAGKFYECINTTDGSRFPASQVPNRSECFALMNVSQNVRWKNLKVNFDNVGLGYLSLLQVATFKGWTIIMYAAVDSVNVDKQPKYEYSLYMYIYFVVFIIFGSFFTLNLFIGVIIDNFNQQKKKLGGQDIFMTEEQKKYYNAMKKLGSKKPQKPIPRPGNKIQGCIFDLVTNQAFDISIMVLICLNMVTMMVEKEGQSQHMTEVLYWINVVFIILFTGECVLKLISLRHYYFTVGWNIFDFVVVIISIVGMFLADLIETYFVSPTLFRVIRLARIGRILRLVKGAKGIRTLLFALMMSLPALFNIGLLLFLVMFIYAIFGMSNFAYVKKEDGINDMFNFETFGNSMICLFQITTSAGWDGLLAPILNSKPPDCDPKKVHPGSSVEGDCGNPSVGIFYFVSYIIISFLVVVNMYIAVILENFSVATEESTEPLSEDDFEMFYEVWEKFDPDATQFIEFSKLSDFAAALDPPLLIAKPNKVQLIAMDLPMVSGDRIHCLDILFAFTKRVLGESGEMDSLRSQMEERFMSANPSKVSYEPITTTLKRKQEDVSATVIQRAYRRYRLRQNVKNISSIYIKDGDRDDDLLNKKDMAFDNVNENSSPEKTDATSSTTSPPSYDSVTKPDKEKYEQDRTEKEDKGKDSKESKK

CCN(CC)CC(=O)Nc1c(C)cccc1C [Lidocaine, lidocaine] gave an IC50 of 28.7 µM.

— patent publication US11583512B2, “Composition for relieving itch or irritation of skin, comprising thymol trimethoxycinnamate” (Amorepacific Corporation, priority 2020, dated 2023)
